# Measured values as given in patent US12071424B2, “IRE1 small molecule inhibitors” (Cornell University, priority 2017, dated 2024).
# Experiments:
# IRE1a [1] = test: IRE1a Endoribonuclease Nanoluciferase Assay (XBP1 luciferase reporter in 293T cells); assay type: cell-based, human; settings: ER stressor, tested as Formic Acid Salt (37: HCl Salt)
# Procedure: Compounds disclosed herein assessed for disruption of IRE1 signaling using a IRE1a Endoribonuclease Nanoluciferase Assay. Briefly, 25×10^5 293T cells were seeded in a 10 cm^2 tissue culture plate. About 24 hours later, the cells were transfected with Effectene. In a 15 mL tube, the following was added: 2 ug XBP1 luciferase reporter plasmid (PGK-Luc2-P2A-XBP1u-Nanoluciferase-Pest); 300 ul EC buffer; and 16 ul Enhancer, followed by incubation at room temp for 5 minutes. Next, 60 ul Effectene (Qiagen 301427) was added, followed by incubation at room temperature for 10 minutes. 2.6 mL cDMEM media was added. Old media was aspirated from the cells, followed by addition of 7 mL fresh media. Full transfection mixture was added dropwise to cells. Cells were incubated for 6 hours, followed by trypsinization, centrifugation and resuspension in 11 mL fresh cDMEM media. 100 uL of cells were plated per a well in a 96 well plate. A day later, ER stressors of choice +/−inhibitors were added. To harvest, media was aspirated from cells completely, then 50 uL 1× passive lysis buffer (Promega: E1941) was added per well and put on shaker (300 rpm) for 30 minutes at room temperature. Cells were centrifuged, and 15 uL sample per well was added to a new, opaque white 384 well plate (Corning 3570). 15 uL OneGlo (nanoluciferase kit, Promega N1630) was added. Plates were spun down, placed on shaker (300 rpm) for 10 minutes. Plates were read on luminometer, 1000 ms integration time per well. 15 uL Stop an Glo (nanoluciferase kit) was added. Plates were spun down, placed on shaker (300 rpm) for 10 minutes. Plates were read on luminometer, 1000 ms second integration time per well. Recordings are provided below in Table 4.
# IRE1a [2] = target: T1, IRE1a (Homo sapiens, UniProt O75460); test: In vitro FRET assay (IRE1a cleavage of XBP1 RNA probe); assay type: biochemical; settings: 2 nM SignalChem IRE1a, tested as Formic Acid Salt (37: HCl Salt)
# T1 construct: purchased SignalChem
# Procedure: In vitro FRET assay was performed to evaluate the ability of select compounds to inhibit IRE1, the results of which are summarized in Table 3. To perform the in vitro FRET assay, 1× complete assay buffer (CAB: […], 50 mM sodium citrate pH 7.15, 1 mM magnesium acetate, 0.02% tween 20) was used to SignalChem IRE1a protein to a final concentration of 2 nM. Selected compounds were serially diluted with DMSO in a non-binding black 384-well plate for a total of 15 ul in each well. 2 ul of the serially diluted compound or DMSO control were then added to new wells containing 98 ul of 1× CAB, for a total volume of 100 ul, 10 ul of which were then transferred to wells of a new plate. 5 ul of the diluted IRE1a was then added to each well. 5 ul of a […] XBP1 RNA probe was then added to each well. Fluorescence was then read over 30 minutes in kinetic mode (485/515 nm).
# Two RNA probes were used, XBP1 wildtype (SEQ ID NO: 2) which is able to be spliced by active IRE1a or XBP1 mutant (SEQ ID NO: 3) which is unable to be spliced. Each probe contained a 5′ 6-FAM modification and a 3′ IOWA black FQ modification. […]
# T1 sequence (O75460 19-977): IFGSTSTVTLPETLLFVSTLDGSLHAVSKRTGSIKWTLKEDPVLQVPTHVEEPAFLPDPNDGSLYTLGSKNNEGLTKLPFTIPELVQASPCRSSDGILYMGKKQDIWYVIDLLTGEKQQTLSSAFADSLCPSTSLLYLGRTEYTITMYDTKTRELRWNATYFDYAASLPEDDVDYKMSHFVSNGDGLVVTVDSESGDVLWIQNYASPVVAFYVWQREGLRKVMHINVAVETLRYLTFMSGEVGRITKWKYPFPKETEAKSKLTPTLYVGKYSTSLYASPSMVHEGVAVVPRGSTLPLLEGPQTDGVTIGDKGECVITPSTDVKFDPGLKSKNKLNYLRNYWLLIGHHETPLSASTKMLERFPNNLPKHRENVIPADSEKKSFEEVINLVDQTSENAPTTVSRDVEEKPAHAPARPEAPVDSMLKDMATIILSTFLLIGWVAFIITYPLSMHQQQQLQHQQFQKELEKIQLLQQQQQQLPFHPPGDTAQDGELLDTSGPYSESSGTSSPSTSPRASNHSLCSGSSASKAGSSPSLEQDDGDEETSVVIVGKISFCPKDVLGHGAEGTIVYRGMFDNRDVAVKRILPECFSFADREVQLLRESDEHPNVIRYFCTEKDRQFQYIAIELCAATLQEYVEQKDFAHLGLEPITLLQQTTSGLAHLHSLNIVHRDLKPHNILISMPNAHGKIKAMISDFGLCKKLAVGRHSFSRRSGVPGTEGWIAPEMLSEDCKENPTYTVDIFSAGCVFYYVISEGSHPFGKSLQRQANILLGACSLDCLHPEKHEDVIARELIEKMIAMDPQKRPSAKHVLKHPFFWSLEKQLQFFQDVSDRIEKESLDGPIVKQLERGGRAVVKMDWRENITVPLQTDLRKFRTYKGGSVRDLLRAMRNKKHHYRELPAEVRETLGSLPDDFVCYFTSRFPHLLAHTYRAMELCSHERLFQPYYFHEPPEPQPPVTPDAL
SMILES,"EC50 (IRE1a [1]; Homo sapiens, HEK-293T) [nM]",IC50 (IRE1a [2]) [nM],EC50 (IRE1a [1]) [nM]
"Cc1nc(NS(=O)(=O)c2ccccc2Cl)c(F)cc1-c1ccc2nc(N[C@H]3CC[C@H](N(C)C)CC3)ncc2c1 [Compound 153, 2-chloro-N-(5-(2-(((1r,4r)-4-(dimethylamino)cyclohexyl)amino)quinazolin-6-yl)-3-fluoro-6-methylpyridin-2-yl)benzenesulfonamide]",5 to 50,≤ 5,
"N[C@H]1CC[C@H](Nc2ncc3cc(-c4nnc(NS(=O)(=O)c5ccccc5Cl)s4)ccc3n2)CC1 [Compound 89, N-(5-(2-(((1r,4r)-4-aminocyclohexyl)amino)quinazolin-6-yl)-1,3,4-thiadiazol-2-yl)-2-chlorobenzene-sulfonamide]",100 to 10000,≤ 5,
"CCc1cc(-c2ccc(NS(=O)(=O)c3ccccc3Cl)c(F)c2)cc2cnc(N[C@H]3CC4C[C@H](N)CC4C3)nc12 (some centres unmarked) [Compound 82, N-(4-(2-((4-5-aminooctahydro-pentalen-2-yl)amino)-8-ethylquinazolin-6-yl)-2-fluorophenyl)-2-chlorobenzene-sulfonamide]",,≤ 5,5 to 50
"O=S(=O)(Nc1ccc(-c2ccc3nc(N[C@H]4CCCNC4)ncc3c2)cc1F)c1ccccc1Cl [Compound 76, (S)-2-chloro-N-(2-fluoro-4-(2-(piperdin-3-ylamino)quinazolin-6-yl)phenyl) benzenesulfon-amide]",5 to 50,≤ 5,
"CCc1cc(-c2ccc(NS(=O)(=O)c3ccccc3Cl)c(F)c2)cc2cnc(N[C@H]3CC[C@H](N4CCCC4)CC3)nc12 [Compound 88, 2-chloro-N-(4-(8-ethyl-2-(((1r,4r)-4-(pyrrolidin-1-yl)cyclohexyl)amino)quinazolin-6-yl)-2-fluorophenyl) benzenesulfon-amide]",≤ 5,≤ 5,
"CCc1cc(-c2ccc(NS(=O)(=O)c3ccccc3Cl)nc2OC)cc2cnc(N[C@H]3CC[C@@H](N(C)C)CC3)nc12 [Compound 141, 2-chloro-N-(5-(2-(((1s,4s)-4-(dimethylamino)cyclohexyl)amino)-8-ethylquinazolin-6-yl)-6-methoxypyridin-2-yl)benzenesulfonamide]",100 to 10000,≤ 5,
"CCCc1cc(-c2cc(NS(=O)(=O)c3ccccc3Cl)nn2C)cc2cnc(N[C@H]3CC[C@H](N)CC3)nc12 [Compound 47, N-(5-(2-(((1r,4r)-4-aminocyclohexyl)amino)-8-propylquinazolin-6-yl)-1-methyl-1H-pyrazol-3-yl)-2-chlorobenzene-sulfonamide]",5 to 50,≤ 5,
"CCc1cc(-c2nnc(NS(=O)(=O)c3ccccc3Cl)cc2OC)cc2cnc(N[C@H]3CC[C@H](N(C)C)CC3)nc12 [Compound 159, 2-chloro-N-(6-(2-(((1r,4r)-4-(dimethylamino)cyclohexyl)amino)-8-ethylquinazolin-6-yl)-5-methoxypyridazin-3-yl)benzenesulfonamide]",5 to 50,≤ 5,
"N[C@H]1CC[C@H](Nc2ncc3cc(-c4ccc(NS(=O)(=O)c5ccccc5Cl)cc4F)ccc3n2)CC1 [Compound 48, N-(4-(2-(((1r,4r)-4-amiocyclohexyl)amino)quinazolin-6-yl)-3-fluorophenyl)-2-chlorobenzene-sulfonamide]",5 to 50,≤ 5,
"CCc1cc(-c2ncc(NS(=O)(=O)c3ccccc3Cl)nc2OC)cc2cnc(N[C@H]3CC[C@H](N(C)C)CC3)nc12 [Compound 157, 2-chloro-N-(5-(2-(((1r,4r)-4-(dimethylamino)cyclohexyl)amino)-8-ethylquinazolin-6-yl)-6-methoxypyrazin-2-yl)benzenesulfonamide]",≤ 5,≤ 5,
"CCc1cc(-c2cc(NS(=O)(=O)c3ccccc3Cl)no2)cc2cnc(N[C@H]3CC[C@H](N)CC3)nc12 [Compound 44, N-(5-(2-(((1r,4r)-4-aminocyclohexyl)amino)-8-ethylquinazolin-6-yl)isoxazol-3-yl)-2-chlorobenzene-sulfonamide]",≤ 5,≤ 5,
"COc1nc(NS(=O)(=O)c2ccccc2Cl)c(F)cc1-c1cc(F)c2nc(N[C@H]3CC[C@H](N(C)C)CC3)ncc2c1 [Compound 155, 2-chloro-N-(5-(2-(((1r,4r)-4-(dimethylamino)cyclohexyl)amino)-8-fluoroquinazolin-6-yl)-3-fluoro-6-methoxypyridin-2-yl)benzenesulfonamide]",50 to 100,≤ 5,
"COc1nc(NS(=O)(=O)c2ccccc2Cl)ccc1-c1cc2cnc(N[C@H]3CC[C@H](N(C)C)CC3)nc2cc1C [Compound 108, 2-chloro-N-(5-(2-(((1r,4r)-4-(dimethylamino)cyclohexyl)amino)-7-methylquinazolin-6-yl)-6-methoxypyridin-2-yl)benzenesulfonamide]",≤ 5,≤ 5,
"COc1nc(NS(=O)(=O)c2ccccc2Cl)ccc1-c1cc(C)c2nc(N[C@H]3CC[C@H](N(C)C)CC3)ncc2c1 [Compound 133, 2-chloro-N-(5-(2-(((1r,4r)-4-(dimethylamino)cyclohexyl)amino)-8-methylquinazolin-6-yl)-6-methoxypyridin-2-yl)benzenesulfonamide]",≤ 5,≤ 5,
"CCc1cc(-c2cc(F)c(NS(=O)(=O)c3ccccc3Cl)nc2C)cc2cnc(N[C@H]3CC[C@H](N(C)C)CC3)nc12 [Compound 97, 2-chloro-N-(5-(2-(((1r,4r)-4-(dimethylamino)cyclohexyl)amino)-8-ethylquinazolin-6-yl)-3-fluoro-6-methylpyridin-2-yl)benzenesulfonamide]",≤ 5,≤ 5,
"CCc1cc(-c2cnc(NS(=O)(=O)c3ccccc3Cl)c(F)c2)cc2cnc(N[C@H]3CC[C@H](N(C)C)CC3)nc12 [Compound 95, 2-chloro-N-(5-(2-(((1r,4r)-4-(dimethylamino)cyclohexyl)amino)-8-ethylquinazolin-6-yl)-3-fluoropyridin-2-yl)benzenesulfonamide]",≤ 5,≤ 5,
"COCc1cc(-c2ccc(NS(=O)(=O)c3ccccc3Cl)nc2OC)cc2cnc(N[C@H]3CC[C@H](N(C)C)CC3)nc12 [Compound 137, 2-chloro-N-(5-(2-(((1r,4r)-4-(dimethylamino)cyclohexyl)amino)-8-(methoxymethyl)quinazolin-6-yl)-6-methoxypyridin-2-yl)benzenesulfonamide]",≤ 5,≤ 5,
"COc1nc(NS(=O)(=O)c2ccccc2Cl)c(F)cc1-c1cc(C)c2nc(N[C@H]3CC[C@H](N(C)C)CC3)ncc2c1 [Compound 145, 2-chloro-N-(5-(2-(((1r,4r)-4-(dimethylamino)cyclohexyl)amino)-8-methylquinazolin-6-yl)-3-fluoro-6-methoxypyridin-2-yl)benzenesulfonamide]",≤ 5,≤ 5,
"COc1nc(NS(=O)(=O)c2ccccc2Cl)ccc1-c1cc(C(C)(F)F)c2nc(N[C@H]3CC[C@H](N(C)C)CC3)ncc2c1 [Compound 124, 2-chloro-N-(5-(8-(1,1-difluoroethyl)-2-(((1r,4r)-4-(dimethylamino)cyclohexyl)amino)quinazolin-6-yl)-6-methoxypyridin-2-yl)benzenesulfonamide]",≤ 5,≤ 5,
"N[C@H]1CC[C@H](Nc2ncc3cc(-c4cc(F)c(NS(=O)(=O)c5ccccc5Cl)cc4F)ccc3n2)CC1 [Compound 53, N-(4-(2-(((1r,4r)-4-aminocyclohexyl)amino)quinazolin-6-yl)-2,5-difluorophenyl)-2-chlorobenzene-sulfonamide]",≤ 5,≤ 5,
"CCc1cc(-c2ccc(NS(=O)(=O)c3ccccc3Cl)c(F)c2)cc2cnc(N[C@H]3CC[C@H](NC(=O)[C@@H](N)C(C)C)CC3)nc12 [Compound 58, (S)-2-amino-N-((1r,4S)-4-((6-(4-((2-chlorophenyl)sulfonamido)-3-fluorophenyl)-8-ethylquinazolin-2-yl)amino)cyclohexyl)-3-methylbutanamide]",≤ 5,,
